Ends that are not written are not given here. C10PNA = 10-mer peptide nucleic acid with ten cytosine bases
What was measured:
[1] = system: B/Maryland/15/2016 strain (B/Victoria); assay type: in vivo, BALB/c mice; settings: for GMT (geometric mean IgG antibody titer) / GMT ratio to the non-adjuvanted group: BALB/c mice; for GMT (geometric mean IgG antibody titer): subcutaneous 0.1 mL, 0.6 μg HA/strain, serum 21 days after administration; for GMT ratio to the non-adjuvanted group: subcutaneous
[2] = system: A/Kansas/14/2017 strain (A/H3N2); assay type: in vivo, BALB/c mice; settings: for GMT (geometric mean IgG antibody titer) / GMT ratio to the non-adjuvanted group: BALB/c mice; for GMT (geometric mean IgG antibody titer): subcutaneous 0.1 mL, 0.6 μg HA/strain, serum 21 days after administration; for GMT ratio to the non-adjuvanted group: subcutaneous

| Substance | GMT (geometric mean IgG antibody titer) [1] | GMT ratio to the non-adjuvanted group ([1]; Day 21) | GMT (geometric mean IgG antibody titer) [2] | GMT ratio to the non-adjuvanted group ([2]; Day 21) | Subclass ratio of IgG1/IgG2a ([1]; Day 21) | Subclass ratio of IgG1/IgG2a ([2]; Day 21) |
| --- | --- | --- | --- | --- | --- | --- |
| MIP-03: HIV TAT-derived peptide of 13 amino acids (SEQ ID NO: 1) covalently bound at its C-terminal to C10PNA (GRKKRRQRRRPPQ-C10PNA) | 25802 | 1.7 | 112071 | 8.7 |  |  |
| 5′-[…]-3′ (SEQ ID NO: 9) [ODN1826] | 31152 | 2.1 | 65838 | 5.1 | IgG2a dominant | IgG2a dominant |
